Tested on: Aedes aegypti
Test: Mosquito (Aedes aegypti) Larval Assay
Conditions: mosquito larvae in DMSO/water solution, death or paralysis following 24 hour incubation at 22° C., read-out: Minimum Efficacious Dose (MED)
Protocol: Mosquito (Aedes aegypti) Larval Assay
Formula (1) compounds were dissolved in DMSO and water. Five instar mosquito larvae were added to the solution and observed for death or paralysis following a 24 hour incubation period at 22° C. Endpoint data was recorded as Minimum Efficacious Dose (MED) in μM.

Row | SMILES | minimal effective concentration [µM]
1 | O=C(NCC(F)(F)F)C1CC(O)(c2ccc(C3=NOC(c4cc(Cl)c(Cl)c(Cl)c4)(C(F)(F)F)C3)cc2)C1 (centres unmarked) [Example 1, 3-hydroxy-3-{4-[5-(3,4,5-trichloro-phenyl)-5-trifluoromethyl-4,5-dihydro-isoxazol-3-yl]-phenyl}-cyclobutanecarboxylic acid (2,2,2-trifluoro-ethyl)-amide] | ≤ 100
2 | O=C(NC1CC1)C1CC(O)(c2ccc(C3=NOC(c4cc(Cl)c(Cl)c(Cl)c4)(C(F)(F)F)C3)cc2)C1 (centres unmarked) [Example 2, 3-hydroxy-3-{4-[5-(3,4,5-trichloro-phenyl)-5-trifluoromethyl-4,5-dihydro-isoxazol-3-yl]-phenyl}-cyclobutanecarboxylic acid cyclopropylamide] | ≤ 100
3 | CNC(=O)C1CC(O)(c2ccc(C3=NOC(c4cc(Cl)c(Cl)c(Cl)c4)(C(F)(F)F)C3)cc2)C1 (centres unmarked) [Example 3, 3-hydroxy-3-{4-[5-(3,4,5-trichloro-phenyl)-5-trifluoromethyl-4,5-dihydro-isoxazol-3-yl]-phenyl}-cyclobutanecarboxylic acid methylamide] | ≤ 100
4 | CN(C)C(=O)C1CC(O)(c2ccc(C3=NOC(c4cc(Cl)c(Cl)c(Cl)c4)(C(F)(F)F)C3)cc2)C1 (centres unmarked) [Example 4, 3-hydroxy-3-{4-[5-(3,4,5-trichloro-phenyl)-5-trifluoromethyl-4,5-dihydro-isoxazol-3-yl]-phenyl}-cyclobutanecarboxylic acid dimethylamide] | ≤ 100
5 | O=C(NCC(F)(F)F)C1CC(F)(c2ccc(C3=NOC(c4cc(Cl)c(Cl)c(Cl)c4)(C(F)(F)F)C3)cc2)C1 (centres unmarked) [Example 7, 3-fluoro-3-{4-[5-(3,4,5-trichloro-phenyl)-5-trifluoromethyl-4,5-dihydro-isoxazol-3-yl]-phenyl}-cyclobutanecarboxylic acid (2,2,2-trifluoro-ethyl)-amide] | ≤ 100
6 | CNC(=O)C1CC(F)(c2ccc(C3=NOC(c4cc(Cl)c(Cl)c(Cl)c4)(C(F)(F)F)C3)cc2)C1 (centres unmarked) [Example 10, 3-fluoro-3-{4-[5-(3,4,5-trichloro-phenyl)-5-trifluoromethyl-4,5-dihydro-isoxazol-3-yl]-phenyl}-cyclobutanecarboxylic acid methylamide] | ≤ 100
7 | CN(C)C(=O)C1CC(F)(c2ccc(C3=NOC(c4cc(Cl)c(Cl)c(Cl)c4)(C(F)(F)F)C3)cc2)C1 (centres unmarked) [Example 11, 3-fluoro-3-{4-[5-(3,4,5-trichloro-phenyl)-5-trifluoromethyl-4,5-dihydro-isoxazol-3-yl]-phenyl}-cyclobutanecarboxylic acid dimethylamide] | ≤ 100
8 | CC(C)NC(=O)C1CC(F)(c2ccc(C3=NOC(c4cc(Cl)c(Cl)c(Cl)c4)(C(F)(F)F)C3)cc2)C1 (centres unmarked) [Example 13] | ≤ 100
9 | CCNC(=O)C1CC(F)(c2ccc(C3=NOC(c4cc(Cl)c(Cl)c(Cl)c4)(C(F)(F)F)C3)cc2)C1 (centres unmarked) [Example 14, 3-fluoro-3-{4-[5-(3,4,5-trichloro-phenyl)-5-trifluoromethyl-4,5-dihydro-isoxazol-3-yl]-phenyl}-cyclobutanecarboxylic acid ethylamide] | ≤ 100
10 | O=C(CNC(=O)C1CC(F)(c2ccc(C3=NOC(c4cc(Cl)c(Cl)c(Cl)c4)(C(F)(F)F)C3)cc2)C1)NCC(F)(F)F (centres unmarked) [Example 15, 3-fluoro-N-(2-oxo-2-((2,2,2-trifluoroethyl)amino)ethyl)-3-(4-(5-(3,4,5-trichlorophenyl)-5-(trifluoromethyl)-4,5-dihydroisoxazol-3-yl)phenyl)cyclobutanecarboxamide] | ≤ 100
11 | O=C(NC1CC1)C1CN(c2ccc(C3=NOC(c4cc(Cl)c(Cl)c(Cl)c4)(C(F)(F)F)C3)cc2)C1 (centres unmarked) [Example 16, 1-{4-[5-(3,4,5-trichloro-phenyl)-5-trifluoromethyl-4,5-dihydro-isoxazol-3-yl]-phenyl}-azetidine-3-carboxylic acid cyclopropylamide] | ≤ 100
12 | CNC(=O)C1CN(c2ccc(C3=NOC(c4cc(Cl)c(Cl)c(Cl)c4)(C(F)(F)F)C3)cc2)C1 (centres unmarked) [Example 17, 1-{4-[5-(3,4,5-trichloro-phenyl)-5-trifluoromethyl-4,5-dihydro-isoxazol-3-yl]-phenyl}-azetidine-3-carboxylic acid methylamide] | ≤ 100
13 | O=C(NCC(F)(F)F)C1CN(c2ccc(C3=NOC(c4cc(Cl)c(Cl)c(Cl)c4)(C(F)(F)F)C3)cc2)C1 (centres unmarked) [Example 18, 1-{4-[5-(3,4,5-trichloro-phenyl)-5-trifluoromethyl-4,5-dihydro-isoxazol-3-yl]-phenyl}-azetidine-3-carboxylic acid (2,2,2-trifluoro-ethyl)-amide] | ≤ 100
14 | CN(C)C(=O)C1CN(c2ccc(C3=NOC(c4cc(Cl)c(Cl)c(Cl)c4)(C(F)(F)F)C3)cc2)C1 (centres unmarked) [Example 19, 1-{4-[5-(3,4,5-trichloro-phenyl)-5-trifluoromethyl-4,5-dihydro-isoxazol-3-yl]-phenyl}azetidine-3-carboxylic acid dimethylamide] | ≤ 100
15 | CNC(=O)C1CN(c2ccc(C3=NOC(c4cc(Cl)c(Cl)c(Cl)c4)(C(F)(F)F)C3)cc2Cl)C1 (centres unmarked) [Example 20, 1-{2-chloro-4-[5-(3,4,5-trichloro-phenyl)-5-trifluoromethyl-4,5-dihydro-isoxazol-3-yl]-phenyl}-azetidine-3-carboxylic acid methylamide] | ≤ 100
16 | O=C(NCC(F)(F)F)C1CN(c2ccc(C3=NOC(c4cc(Cl)c(Cl)c(Cl)c4)(C(F)(F)F)C3)cc2Cl)C1 (centres unmarked) [Example 21, 1-{2-chloro-4-[5-(3,4,5-trichloro-phenyl)-5-trifluoromethyl-4,5-dihydro-isoxazol-3-yl]-phenyl}-azetidine-3-carboxylic acid (2,2,2-trifluoro-ethyl)-amide] | ≤ 100
17 | O=C(NC1CC1)C1CN(c2ccc(C3=NOC(c4cc(Cl)c(Cl)c(Cl)c4)(C(F)(F)F)C3)cc2Cl)C1 (centres unmarked) [Example 22, 1-{2-chloro-4-[5-(3,4,5-trichloro-phenyl)-5-trifluoromethyl-4,5-dihydro-isoxazol-3-yl]-phenyl}-azetidine-3-carboxylic acid cyclopropylamide] | ≤ 100
18 | CN(C)C(=O)C1CN(c2ccc(C3=NOC(c4cc(Cl)c(Cl)c(Cl)c4)(C(F)(F)F)C3)cc2Cl)C1 (centres unmarked) [Example 23, 1-{2-chloro-4-[5-(3,4,5-trichloro-phenyl)-5-trifluoromethyl-4,5-dihydro-isoxazol-3-yl]-phenyl}-azetidine-3-carboxylic acid dimethylamide] | ≤ 100
19 | O=C(NC1CC(F)(c2ccc(C3=NOC(c4cc(Cl)c(Cl)c(Cl)c4)(C(F)(F)F)C3)cc2)C1)C1CC1 (centres unmarked) [Example 24, N-(3-fluoro-3-(4-(5-(3,4,5-trichlorophenyl)-5-(trifluoromethyl)-4,5-dihydroisoxazol-3-yl)phenyl)cyclobutyl)cyclopropanecarboxamide] | ≤ 100
20 | CS(=O)(=O)CC(=O)NC1CC(F)(c2ccc(C3=NOC(c4cc(Cl)c(Cl)c(Cl)c4)(C(F)(F)F)C3)cc2)C1 (centres unmarked) [Example 25, N-(3-fluoro-3-(4-(5-(3,4,5-trichlorophenyl)-5-(trifluoromethyl)-4,5-dihydroisoxazol-3-yl)phenyl)cyclobutyl)-2-(methylsulfonyl)acetamide] | ≤ 100

Source: US9061013B2, “Isoxazoline derivatives as antiparasitic agents” (Zoetis LLC, priority 2011, dated 2015)
